Experimental data: patent US20100099561A1, “HETEROBICYCLIC ALKYLTHIO-BRIDGED ISOXAZOLINES” (E.I. DU PONT DE NEMOURS AND COMPANY, priority 2008, published 2010)

Legend:
Format in all cases: in vivo
[1] = test system: velvetleaf (Abutilon theophrasti); assay: Test A postemergence, velvetleaf; conditions: 0 to 100 scale (0 no effect, 100 complete control)
Summary of the method: (§1)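 Visual injury rating, 0 = no effect to 100 = complete control, made roughly ten days after treatment by comparison with untreated controls. Preemergence: directed soil spray onto freshly planted loam/sand. Postemergence: foliar application at one- to two-leaf stage, 2–10 cm height.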

[2] = test system: ducksalad (Heteranthera limosa); assay: Test B flooded paddy test, ducksalad; conditions: Flood, scale 0 to 100
Summary of the method: (§2)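 Step one: raise plants to 2 leaves. Step two: flood pots 3 cm over the soil and apply compound into the water, keeping this depth. Step three: after 13–15 greenhouse days, score visually versus controls, 0–100, where 100 means complete control.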

rice (Oryza sativa) = assay: Test B flooded paddy test, rice; conditions: Flood, scale 0 to 100
Summary of the method: as §2

[3] = test system: barnyardgrass (Echinochloa crus-galli); assay: Test A postemergence, barnyardgrass; conditions: 0 to 100 scale (0 no effect, 100 complete control)
Summary of the method: as §1

corn (Zea mays) [4] = assay: Test A preemergence, corn; conditions: 0 to 100 scale (0 no effect, 100 complete control)
Summary of the method: as §1

[5] = test system: velvetleaf (Abutilon theophrasti); assay: Test A preemergence, velvetleaf; conditions: 0 to 100 scale (0 no effect, 100 complete control)
Summary of the method: as §1

[6] = test system: giant foxtail (Setaria faberi); assay: Test A postemergence, giant foxtail; conditions: 0 to 100 scale (0 no effect, 100 complete control)
Summary of the method: as §1

[7] = test system: morningglory (Ipomoea spp.); assay: Test A preemergence, morningglory; conditions: 0 to 100 scale (0 no effect, 100 complete control)
Summary of the method: as §1

[8] = test system: wheat (Triticum aestivum); assay: Test A preemergence, wheat; conditions: 0 to 100 scale (0 no effect, 100 complete control)
Summary of the method: as §1

[9] = test system: barnyardgrass (Echinochloa crus-galli); assay: Test A preemergence, barnyardgrass; conditions: 0 to 100 scale (0 no effect, 100 complete control)
Summary of the method: as §1

corn (Zea mays) [10] = assay: Test A postemergence, corn; conditions: 0 to 100 scale (0 no effect, 100 complete control)
Summary of the method: as §1

[11] = test system: large crabgrass (Digitaria sanguinalis); assay: Test A postemergence, large crabgrass; conditions: 0 to 100 scale (0 no effect, 100 complete control)
Summary of the method: as §1

[12] = test system: morningglory (Ipomoea spp.); assay: Test A postemergence, morningglory; conditions: 0 to 100 scale (0 no effect, 100 complete control)
Summary of the method: as §1

[13] = test system: giant foxtail (Setaria faberi); assay: Test A preemergence, giant foxtail; conditions: 0 to 100 scale (0 no effect, 100 complete control)
Summary of the method: as §1

[14] = test system: pigweed (Amaranthus retroflexus); assay: Test A postemergence, pigweed; conditions: 0 to 100 scale (0 no effect, 100 complete control)
Summary of the method: as §1

[15] = test system: large crabgrass (Digitaria sanguinalis); assay: Test A preemergence, large crabgrass; conditions: 0 to 100 scale (0 no effect, 100 complete control)
Summary of the method: as §1

[16] = test system: wheat (Triticum aestivum); assay: Test A postemergence, wheat; conditions: 0 to 100 scale (0 no effect, 100 complete control)
Summary of the method: as §1

[17] = test system: pigweed (Amaranthus retroflexus); assay: Test A preemergence, pigweed; conditions: 0 to 100 scale (0 no effect, 100 complete control)
Summary of the method: as §1

[18] = test system: umbrella sedge (Cyperus difformis); assay: Test B flooded paddy test, umbrella sedge; conditions: Flood, scale 0 to 100
Summary of the method: as §2

[19] = test system: barnyardgrass (Echinochloa crus-galli); assay: Test B flooded paddy test, barnyardgrass; conditions: Flood
Summary of the method: as §2

[20] = 250 g ai/ha, scale 0 to 100 (0 no effect, 100 complete control)

## CCn1c(=O)c(CS(=O)(=O)C2=NOC(C)(C)C2)nc2ccccc21 [Compound 28]
[1]; 125 g ai/ha
  Plant response rating, Velvetleaf: 0
[1]; 500 g ai/ha
  Plant response rating, Velvetleaf: 0
[2]; 31 g ai/ha
  Plant response rating, Ducksalad: 0
[2]; 62 g ai/ha
  Plant response rating, Ducksalad: 0
[2]; 125 g ai/ha
  Plant response rating, Ducksalad: 0
[2]; 250 g ai/ha
  Plant response rating, Ducksalad: 0
Rice (Oryza sativa); 31 g ai/ha
  Plant response rating, Rice: 0
Rice (Oryza sativa); 62 g ai/ha
  Plant response rating, Rice: 0
Rice (Oryza sativa); 125 g ai/ha
  Plant response rating, Rice: 0
Rice (Oryza sativa); 250 g ai/ha
  Plant response rating, Rice: 0
[3]; 125 g ai/ha
  Plant response rating, Barnyardgrass: 30
[3]; 500 g ai/ha
  Plant response rating, Barnyardgrass: 40
Corn (Zea mays) [4]; 125 g ai/ha
  Plant response rating, Corn: 0
Corn (Zea mays) [4]; 500 g ai/ha
  Plant response rating, Corn: 0
[5]; 125 g ai/ha
  Plant response rating, Velvetleaf: 0
[5]; 500 g ai/ha
  Plant response rating, Velvetleaf: 0
[6]; 125 g ai/ha
  Plant response rating, Foxtail, Giant: 0
[6]; 500 g ai/ha
  Plant response rating, Foxtail, Giant: 0
[7]; 125 g ai/ha
  Plant response rating, Morningglory: 0
[7]; 500 g ai/ha
  Plant response rating, Morningglory: 0
[8]; 125 g ai/ha
  Plant response rating, Wheat: 0
[8]; 500 g ai/ha
  Plant response rating, Wheat: 0
[9]; 125 g ai/ha
  Plant response rating, Barnyardgrass: 0
[9]; 500 g ai/ha
  Plant response rating, Barnyardgrass: 10
Corn (Zea mays) [10]; 125 g ai/ha
  Plant response rating, Corn: 0
Corn (Zea mays) [10]; 500 g ai/ha
  Plant response rating, Corn: 0
[11]; 125 g ai/ha
  Plant response rating, Crabgrass, Large: 0
[11]; 500 g ai/ha
  Plant response rating, Crabgrass, Large: 50
[12]; 125 g ai/ha
  Plant response rating, Morningglory: 0
[12]; 500 g ai/ha
  Plant response rating, Morningglory: 0
[13]; 125 g ai/ha
  Plant response rating, Foxtail, Giant: 0
[13]; 500 g ai/ha
  Plant response rating, Foxtail, Giant: 20
[14]; 125 g ai/ha
  Plant response rating, Pigweed: 0
[14]; 500 g ai/ha
  Plant response rating, Pigweed: 0
[15]; 125 g ai/ha
  Plant response rating, Crabgrass, Large: 40
[15]; 500 g ai/ha
  Plant response rating, Crabgrass, Large: 50
[16]; 125 g ai/ha
  Plant response rating, Wheat: 0
[16]; 500 g ai/ha
  Plant response rating, Wheat: 0
[17]; 125 g ai/ha
  Plant response rating, Pigweed: 0
[17]; 500 g ai/ha
  Plant response rating, Pigweed: 0
[18]; 31 g ai/ha
  Plant response rating, Sedge, Umbrella: 0
[18]; 62 g ai/ha
  Plant response rating, Sedge, Umbrella: 0
[18]; 125 g ai/ha
  Plant response rating, Sedge, Umbrella: 0
[18]; 250 g ai/ha
  Plant response rating, Sedge, Umbrella: 0
[19]; 31 g ai/ha, scale 0 to 100
  Plant response rating, Barnyardgrass: 0
[19]; 62 g ai/ha, scale 0 to 100
  Plant response rating, Barnyardgrass: 0
[19]; 125 g ai/ha, scale 0 to 100
  Plant response rating, Barnyardgrass: 0
[19]; [20]
  Plant response rating, Barnyardgrass: 0

## CCn1c(=O)c(C[S+]([O-])C2=NOC(C)(C)C2)nc2ccccc21 (centres unmarked) [Compound 29]
[1]; 125 g ai/ha
  Plant response rating, Velvetleaf: 0
[1]; 500 g ai/ha
  Plant response rating, Velvetleaf: 0
[2]; 31 g ai/ha
  Plant response rating, Ducksalad: 0
[2]; 62 g ai/ha
  Plant response rating, Ducksalad: 0
[2]; 125 g ai/ha
  Plant response rating, Ducksalad: 0
[2]; 250 g ai/ha
  Plant response rating, Ducksalad: 20
Rice (Oryza sativa); 31 g ai/ha
  Plant response rating, Rice: 0
Rice (Oryza sativa); 62 g ai/ha
  Plant response rating, Rice: 0
Rice (Oryza sativa); 125 g ai/ha
  Plant response rating, Rice: 0
Rice (Oryza sativa); 250 g ai/ha
  Plant response rating, Rice: 0
[3]; 125 g ai/ha
  Plant response rating, Barnyardgrass: 10
[3]; 500 g ai/ha
  Plant response rating, Barnyardgrass: 20
Corn (Zea mays) [4]; 125 g ai/ha
  Plant response rating, Corn: 0
[5]; 125 g ai/ha
  Plant response rating, Velvetleaf: 0
[5]; 500 g ai/ha
  Plant response rating, Velvetleaf: 0
[6]; 125 g ai/ha
  Plant response rating, Foxtail, Giant: 0
[6]; 500 g ai/ha
  Plant response rating, Foxtail, Giant: 0
[7]; 125 g ai/ha
  Plant response rating, Morningglory: 0
[7]; 500 g ai/ha
  Plant response rating, Morningglory: 0
[8]; 125 g ai/ha
  Plant response rating, Wheat: 0
[8]; 500 g ai/ha
  Plant response rating, Wheat: 0
[9]; 125 g ai/ha
  Plant response rating, Barnyardgrass: 0
[9]; 500 g ai/ha
  Plant response rating, Barnyardgrass: 0
Corn (Zea mays) [10]; 125 g ai/ha
  Plant response rating, Corn: 0
Corn (Zea mays) [10]; 500 g ai/ha
  Plant response rating, Corn: 0
[11]; 125 g ai/ha
  Plant response rating, Crabgrass, Large: 0
[11]; 500 g ai/ha
  Plant response rating, Crabgrass, Large: 0
[12]; 125 g ai/ha
  Plant response rating, Morningglory: 0
[12]; 500 g ai/ha
  Plant response rating, Morningglory: 0
[13]; 125 g ai/ha
  Plant response rating, Foxtail, Giant: 0
[13]; 500 g ai/ha
  Plant response rating, Foxtail, Giant: 0
[14]; 125 g ai/ha
  Plant response rating, Pigweed: 0
[14]; 500 g ai/ha
  Plant response rating, Pigweed: 0
[15]; 125 g ai/ha
  Plant response rating, Crabgrass, Large: 0
[15]; 500 g ai/ha
  Plant response rating, Crabgrass, Large: 0
[16]; 125 g ai/ha
  Plant response rating, Wheat: 0
[16]; 500 g ai/ha
  Plant response rating, Wheat: 0
[17]; 125 g ai/ha
  Plant response rating, Pigweed: 0
[17]; 500 g ai/ha
  Plant response rating, Pigweed: 0
[18]; 31 g ai/ha
  Plant response rating, Sedge, Umbrella: 0
[18]; 62 g ai/ha
  Plant response rating, Sedge, Umbrella: 0
[18]; 125 g ai/ha
  Plant response rating, Sedge, Umbrella: 0
[18]; 250 g ai/ha
  Plant response rating, Sedge, Umbrella: 0
[19]; 31 g ai/ha, scale 0 to 100
  Plant response rating, Barnyardgrass: 0
[19]; 62 g ai/ha, scale 0 to 100
  Plant response rating, Barnyardgrass: 0
[19]; 125 g ai/ha, scale 0 to 100
  Plant response rating, Barnyardgrass: 0
[19]; [20]
  Plant response rating, Barnyardgrass: 0
